According to ChEMBL document CHEMBL1150549, “Synthesis and antifungal activity of new azole derivatives containing an oxathiane ring” (1996):
Converted amounts (≈) assume the structure as drawn.

Assays:
Format in all cases: functional
Aspergillus fumigatus = test: In vitro antifungal activity against Aspergillus fumigatus MTU6001
Candida albicans = test: In vitro antifungal activity against Candida albicans KB-8
Mus musculus [1] = test: In vivo antifungal activity against Aspergillus fumigatus in mice at a dose of 50 mg/kg upon oral administration
Mus musculus [2] = test: In vivo antifungal activity against Candida albicans in mice at a dose of 10 mg/kg upon oral administration
Mus musculus [3] = test: In vivo antifungal activity against Aspergillus fumigatus in mice at a dose of 100 mg/kg upon oral administration

C[C@H]1SCCOC1(Cn1cncn1)c1ccc(F)cc1F (single isomer, unassigned)
MIC (Aspergillus fumigatus): 50 µg/mL (≈ 161 µM)
MIC (Candida albicans): 0.2 µg/mL (≈ 0.642 µM)
Mean survival days (Mus musculus [1]): 1.5 days
Mean survival days (Mus musculus [2]): 4.9 days

C[C@@H]1SCCOC1(Cn1cncn1)c1ccc(F)cc1F (single isomer, unassigned)
MIC (Aspergillus fumigatus): 25 µg/mL (≈ 80.3 µM)
MIC (Candida albicans): 0.1 µg/mL (≈ 0.321 µM)
Mean survival days (Mus musculus [1]): 1.9 days
Mean survival days (Mus musculus [2]): 2 days

C[C@H]1C(Cn2cncn2)(c2ccc(F)cc2F)OCCS1(=O)=O (single isomer, unassigned)
MIC (Aspergillus fumigatus): > 100 µg/mL
MIC (Candida albicans): 3.13 µg/mL (≈ 9.12 µM)
Mean survival days (Mus musculus [1]): 1.8 days
Mean survival days (Mus musculus [2]): 1.2 days

CC1COC(Cn2cncn2)(c2ccc(F)cc2F)C(C)(C)S1(=O)=O (single isomer, unassigned)
MIC (Aspergillus fumigatus): 12.5 µg/mL (≈ 33.7 µM)
MIC (Candida albicans): 0.39 µg/mL (≈ 1.05 µM)
Mean survival days (Mus musculus [1]): 9.4 days
Mean survival days (Mus musculus [2]): 10 days

CC1(C)C(Cn2cncn2)(c2ccc(F)cc2F)OCCS1(=O)=O (single isomer, unassigned)
MIC (Aspergillus fumigatus): 100 µg/mL (≈ 280 µM)
MIC (Candida albicans): 3.13 µg/mL (≈ 8.76 µM)
Mean survival days (Mus musculus [1]): 10 days
Mean survival days (Mus musculus [2]): 9.4 days

OC(Cn1cncn1)(Cn1cncn1)c1ccc(F)cc1F [FLUCONAZOLE]
MIC (Aspergillus fumigatus): 400 µg/mL (≈ 1310 µM)
MIC (Candida albicans): 0.78 µg/mL (≈ 2.55 µM)
Mean survival days (Mus musculus [3]): 2.8 days
Mean survival days (Mus musculus [2]): 10 days

CC1(C)SCCOC1(Cn1cncn1)c1ccc(F)cc1F (single isomer, unassigned)
MIC (Aspergillus fumigatus): 3.13 µg/mL (≈ 9.62 µM)
MIC (Candida albicans): 0.1 µg/mL (≈ 0.307 µM)
Mean survival days (Mus musculus [1]): 9.8 days
Mean survival days (Mus musculus [2]): 8.6 days

C[C@H]([C@](O)(Cn1cncn1)c1ccc(F)cc1F)S(C)(=O)=O [GENACONAZOLE]
MIC (Aspergillus fumigatus): 25 µg/mL (≈ 75.5 µM)
MIC (Candida albicans): 0.39 µg/mL (≈ 1.18 µM)
Mean survival days (Mus musculus [1]): 10 days
Mean survival days (Mus musculus [2]): 10 days

C[C@@H]1C(Cn2cncn2)(c2ccc(F)cc2F)OCCS1(=O)=O (single isomer, unassigned)
MIC (Aspergillus fumigatus): > 100 µg/mL
MIC (Candida albicans): 6.25 µg/mL (≈ 18.2 µM)
Mean survival days (Mus musculus [1]): 1.1 days
Mean survival days (Mus musculus [2]): 6.9 days
